Values quoted from earlier work in patent US7368441B2, “Method of increasing intracellular concentrations of phosphate and increasing the force of muscular contractions” (Aplodan Formulations Ltd., priority 2006, dated 2008).
Where two headings read alike, the source gives them in different places.

Key:
[1] = in vivo
[2] = patients with inadequate coronary blood flow
[3] = administration in humans
[4] = oral administration, test animals, at 48 hours
[5] = alkaline and acidic solutions
[6] = in vitro
[7] = clinical trials
[8] = unaffected in placebo group
[9] = elderly subjects

Compound: CN(CCOP(=O)(O)O)C(=N)N [2-(carbamimidoyl-methyl-amino)ethoxyphosphonic acid]
- tolerability / side effects [1]: well tolerated and without side effects
- cardiac parameters [2]: improve cardiac parameters
- urine levels of creatinine [3]: increases urine levels of creatinine
- absorption by the intestine [4]: about 60%
- stability in solution [5]: stable in both alkaline and acidic solutions
- dephosphorylation to creatine ([6]; blood and muscle): less so
- dephosphorylation to creatine ([6]; kidney, intestine and liver): dephosphorylated to creatine to some degree
- muscle development and capacity to perform physical activity [7]: improve muscle development and increase the capacity to perform physical activity
- hand strength [8]: improved
- muscular performance [9]: improved muscular performance
- 14C radio-labeled compound found in skeletal muscle (Guinea-Pig, intravenous, intramuscular and oral administration): Significant amounts
- duration of more constant level in the body following administration (oral administration): about 15 hours
- time after which level in the body begins to decrease (oral administration): 33 h
